Source: ChEMBL document CHEMBL5113490, “Discovery of CN0 as a novel proteolysis-targeting chimera (PROTAC) degrader of PARP1 that can activate the cGAS/STING immunity pathway combined with daunorubicin” (Bioorg Med Chem, 2022)
Each block holds one compound with its values, some of them ahead of it. The source made the active and inactive calls. No cut-off for these calls is given here.

What was measured:
[1] = molecular target: T1, Protein cereblon/Poly [ADP-ribose] polymerase 1 (Homo sapiens, UniProt P09874+Q96SW2); assay: Protac activity at CRBN/PARP1 in human MDA-MB-231 cells assessed as PARP1 degradation measured after 24 hrs; format: cell-based
Target sequence in this assay (P09874 whole entry): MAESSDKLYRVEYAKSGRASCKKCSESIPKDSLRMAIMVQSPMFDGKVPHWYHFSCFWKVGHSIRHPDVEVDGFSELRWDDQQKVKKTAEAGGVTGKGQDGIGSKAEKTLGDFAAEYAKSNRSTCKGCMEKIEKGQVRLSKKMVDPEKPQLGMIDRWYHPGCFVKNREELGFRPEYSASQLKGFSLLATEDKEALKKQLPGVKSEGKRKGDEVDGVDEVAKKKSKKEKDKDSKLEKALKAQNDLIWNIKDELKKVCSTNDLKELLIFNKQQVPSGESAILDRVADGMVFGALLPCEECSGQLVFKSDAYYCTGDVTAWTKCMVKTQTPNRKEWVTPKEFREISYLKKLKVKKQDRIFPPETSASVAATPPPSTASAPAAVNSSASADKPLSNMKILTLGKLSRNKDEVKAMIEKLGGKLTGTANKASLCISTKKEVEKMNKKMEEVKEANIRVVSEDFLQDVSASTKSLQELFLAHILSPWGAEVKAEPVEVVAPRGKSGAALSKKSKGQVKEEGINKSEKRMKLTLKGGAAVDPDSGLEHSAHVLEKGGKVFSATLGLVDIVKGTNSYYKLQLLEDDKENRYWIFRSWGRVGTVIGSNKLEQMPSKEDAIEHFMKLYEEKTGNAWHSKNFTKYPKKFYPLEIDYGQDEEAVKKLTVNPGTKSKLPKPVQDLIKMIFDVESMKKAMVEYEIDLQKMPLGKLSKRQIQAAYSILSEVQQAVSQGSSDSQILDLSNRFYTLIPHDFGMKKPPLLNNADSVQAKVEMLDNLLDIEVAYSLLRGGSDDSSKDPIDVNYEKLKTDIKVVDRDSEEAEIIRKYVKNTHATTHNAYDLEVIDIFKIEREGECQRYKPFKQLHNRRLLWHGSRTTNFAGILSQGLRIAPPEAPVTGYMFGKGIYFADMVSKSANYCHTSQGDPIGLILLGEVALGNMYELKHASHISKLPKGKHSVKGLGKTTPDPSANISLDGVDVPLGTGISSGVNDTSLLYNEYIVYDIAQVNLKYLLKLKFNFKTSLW
Target sequence in this assay (Q96SW2 whole entry): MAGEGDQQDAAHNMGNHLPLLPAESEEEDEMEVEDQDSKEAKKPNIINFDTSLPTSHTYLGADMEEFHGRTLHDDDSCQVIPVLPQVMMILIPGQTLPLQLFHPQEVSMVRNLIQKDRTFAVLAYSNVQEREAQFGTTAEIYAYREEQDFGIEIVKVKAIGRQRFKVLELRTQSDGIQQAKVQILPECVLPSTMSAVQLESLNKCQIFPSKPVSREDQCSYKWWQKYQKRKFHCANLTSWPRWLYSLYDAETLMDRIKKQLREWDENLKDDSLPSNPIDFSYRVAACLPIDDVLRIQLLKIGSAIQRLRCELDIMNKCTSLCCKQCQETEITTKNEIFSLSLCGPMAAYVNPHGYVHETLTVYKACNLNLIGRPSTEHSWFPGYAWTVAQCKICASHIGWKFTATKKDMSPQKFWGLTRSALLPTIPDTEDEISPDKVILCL

[2] = molecular target: T1, Protein cereblon/Poly [ADP-ribose] polymerase 1; assay: Protac activity at CRBN/PARP1 in human MDA-MB-231 cells assessed as PARP1 degradation at 10 uM measured after 4 to 48 hrs; format: cell-based; conditions: time 4-48 hrs
Target sequence in this assay (P09874 2-1014 limits assumed): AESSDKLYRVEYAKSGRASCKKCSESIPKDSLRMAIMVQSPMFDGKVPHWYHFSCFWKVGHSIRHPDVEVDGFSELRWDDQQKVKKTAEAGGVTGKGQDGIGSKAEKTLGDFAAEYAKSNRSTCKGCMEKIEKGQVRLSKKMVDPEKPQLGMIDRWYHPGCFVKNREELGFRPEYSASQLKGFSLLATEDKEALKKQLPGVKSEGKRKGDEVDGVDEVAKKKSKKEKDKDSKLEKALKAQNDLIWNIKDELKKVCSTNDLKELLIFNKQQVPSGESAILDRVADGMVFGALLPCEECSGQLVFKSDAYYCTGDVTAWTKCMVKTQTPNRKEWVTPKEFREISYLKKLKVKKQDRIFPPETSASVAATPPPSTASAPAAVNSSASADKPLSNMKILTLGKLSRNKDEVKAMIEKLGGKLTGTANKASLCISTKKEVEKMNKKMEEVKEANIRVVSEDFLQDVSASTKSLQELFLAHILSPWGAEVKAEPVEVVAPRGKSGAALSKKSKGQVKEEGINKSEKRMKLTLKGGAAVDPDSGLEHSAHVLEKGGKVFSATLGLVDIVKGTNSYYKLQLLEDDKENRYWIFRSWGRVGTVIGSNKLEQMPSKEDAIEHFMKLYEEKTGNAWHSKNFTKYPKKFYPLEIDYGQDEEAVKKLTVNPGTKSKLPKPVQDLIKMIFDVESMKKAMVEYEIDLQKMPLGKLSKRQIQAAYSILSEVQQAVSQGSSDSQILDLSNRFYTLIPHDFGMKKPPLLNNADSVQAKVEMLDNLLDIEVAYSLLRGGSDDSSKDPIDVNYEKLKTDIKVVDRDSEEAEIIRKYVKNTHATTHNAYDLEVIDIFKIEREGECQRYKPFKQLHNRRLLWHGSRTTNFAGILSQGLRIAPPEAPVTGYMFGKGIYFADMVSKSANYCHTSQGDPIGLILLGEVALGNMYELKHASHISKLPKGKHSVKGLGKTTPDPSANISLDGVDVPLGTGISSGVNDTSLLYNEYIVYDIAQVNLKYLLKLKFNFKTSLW
Target sequence in this assay (Q96SW2 whole entry partner): as the sequence (Q96SW2 whole entry) above

[3] = molecular target: Protein cereblon (Homo sapiens) (UniProt Q96SW2); assay: Binding affinity to CRBN in human MDA-MB-231 cells measured by thermal shift assay; format: cell-based
Chain of Protein cereblon (Homo sapiens) (Q96SW2 whole entry): as above

[4] = molecular target: T1, Protein cereblon/Poly [ADP-ribose] polymerase 1; assay: Protac activity at CRBN/PARP1 in human MDA-MB-231 cells assessed as PARP1 degradation at 10 uM measured after 3 hrs in presence of 10 uM Z-VAD-FMK; format: cell-based
Target sequence in this assay (P09874 2-1014 limits assumed): as the sequence (P09874 2-1014 limits assumed) above
Target sequence in this assay (Q96SW2 whole entry partner): as the sequence (Q96SW2 whole entry) above

MDA-MB-231 [5] = assay: Inhibition of DNA repair in human MDA-MB-231 cells assessed as induction of gamma-H2AX level at 10 uM in presence of 0.5 uM daunorubicin measured after 2 hrs by western blot analysis; format: functional, cell-based
MDA-MB-231 [6] = assay: Inhibition of DNA repair in human MDA-MB-231 cells assessed as induction of free cytosolic dsDNA at 5 uM in presence of 0.5 uM daunorubicin measured after 24 hrs by DAPI staining method; format: functional, cell-based
MDA-MB-231 [7] = assay: Growth inhibition of human MDA-MB-231 cells at 10 uM; format: functional; conditions: read-out: GI
MDA-MB-231 [8] = assay: Growth inhibition of human MDA-MB-231 cells at 10 uM in presence of 0.25 uM daunorubicin; format: functional; conditions: read-out: GI
MDA-MB-231 [9] = assay: Growth inhibition of human MDA-MB-231 cells at 10 uM in presence of 1 uM daunorubicin; format: functional; conditions: read-out: GI
MDA-MB-231 [10] = assay: Growth inhibition of human MDA-MB-231 cells at 10 uM in presence of 4 uM daunorubicin; format: functional; conditions: read-out: GI
MDA-MB-231 [11] = assay: Growth inhibition of human MDA-MB-231 cells assessed as combination index at 10 uM in presence of 0.25 uM daunorubicin; format: functional
MDA-MB-231 [12] = assay: Growth inhibition of human MDA-MB-231 cells assessed as combination index at 10 uM in presence of 1 uM daunorubicin; format: functional
MDA-MB-231 [13] = assay: Growth inhibition of human MDA-MB-231 cells assessed as combination index at 10 uM in presence of 4 uM daunorubicin; format: functional
4T1 [14] = assay: Growth inhibition of mouse 4T1 cells at 10 uM; format: functional; conditions: read-out: GI
4T1 [15] = assay: Growth inhibition of mouse 4T1 cells at 10 uM in presence of 0.25 uM daunorubicin; format: functional; conditions: read-out: GI
4T1 [16] = assay: Growth inhibition of mouse 4T1 cells at 10 uM in presence of 0.5 uM daunorubicin; format: functional; conditions: read-out: GI
4T1 [17] = assay: Growth inhibition of mouse 4T1 cells at 10 uM in presence of 1 uM daunorubicin; format: functional; conditions: read-out: GI
4T1 [18] = assay: Growth inhibition of mouse 4T1 cells assessed as combination index at 10 uM in presence of 0.25 uM daunorubicin; format: functional
4T1 [19] = assay: Growth inhibition of mouse 4T1 cells assessed as combination index at 10 uM in presence of 0.5 uM daunorubicin; format: functional
4T1 [20] = assay: Growth inhibition of mouse 4T1 cells assessed as combination index at 10 uM in presence of 1 uM daunorubicin; format: functional
[21] = Cytotoxicity against human MCF-10A cells assessed as growth inhibition at 10 uM; format: toxicity, cell-based; conditions: read-out: GI
[22] = Cytotoxicity against human MCF-10A cells assessed as growth inhibition at 10 uM in presence of 0.25 uM daunorubicin; format: toxicity, cell-based; conditions: read-out: GI
[23] = Cytotoxicity against human MCF-10A cells assessed as growth inhibition at 10 uM in presence of 0.5 uM daunorubicin; format: toxicity, cell-based; conditions: read-out: GI
MDA-MB-231 [24] = assay: Activation of cGAS/STING pathway in human MDA-MB-231 cells assessed as increase in TBK1 phosphorylation at S172 residue at 10 uM in presence of 0.5 uM daunorubicin measured after 24 hrs; format: cell-based; conditions: filed as activator
MDA-MB-231 [25] = assay: Activation of cGAS/STING pathway in human MDA-MB-231 cells assessed as increase in IRF3 phosphorylation at S396 residue at 10 uM in presence of 0.5 uM daunorubicin measured after 24 hrs; format: cell-based; conditions: filed as activator
MDA-MB-231 [26] = assay: Activation of cGAS/STING pathway in human MDA-MB-231 cells assessed as increase in STING phosphorylation at 10 uM in presence of 0.5 uM daunorubicin measured after 24 hrs; format: cell-based; conditions: filed as activator
MDA-MB-231 [27] = assay: Activation of cGAS/STING pathway in human MDA-MB-231 cells assessed as increase in P65 phosphorylation at 10 uM in presence of 0.5 uM daunorubicin measured after 24 hrs; format: cell-based; conditions: filed as activator
MDA-MB-231 [28] = assay: Activation of cGAS/STING pathway in human MDA-MB-231 cells assessed as upregulation of cGAS mRNA expression at 10 uM in presence of 0.5 uM daunorubicin measured after 24 hrs; format: cell-based; conditions: filed as activator
MDA-MB-231 [29] = assay: Activation of cGAS/STING pathway in human MDA-MB-231 cells assessed as upregulation of STING mRNA expression at 10 uM in presence of 0.5 uM daunorubicin measured after 24 hrs; format: cell-based; conditions: filed as activator
MDA-MB-231 [30] = assay: Activation of cGAS/STING pathway in human MDA-MB-231 cells assessed as upregulation of CCL5 mRNA expression at 10 uM in presence of 0.5 uM daunorubicin measured after 24 hrs; format: cell-based; conditions: filed as activator
MDA-MB-231 [31] = assay: Activation of cGAS/STING pathway in human MDA-MB-231 cells assessed as upregulation of CXCL9 mRNA expression at 10 uM in presence of 0.5 uM daunorubicin measured after 24 hrs; format: cell-based; conditions: filed as activator
MDA-MB-231 [32] = assay: Activation of cGAS/STING pathway in human MDA-MB-231 cells assessed as upregulation of CXCL10 mRNA expression at 10 uM in presence of 0.5 uM daunorubicin measured after 24 hrs; format: cell-based; conditions: filed as activator
MDA-MB-231 [33] = assay: Antiproliferative activity against human MDA-MB-231 cells assessed as increase in cell killing by T cells at 10 uM in presence of 0.5 uM daunorubicin measured after 24 hrs by flow cytometry analysis; format: functional, cell-based
[34] = Half-life in rat at 8 mg/kg, iv; format: ADME, organism-based; conditions: in vivo
[35] = Cmax in rat at 8 mg/kg, iv; format: ADME, organism-based; set-up: dose 8 mg/kg, route iv; conditions: in vivo
[36] = AUC (0 to t) in rat at 8 mg/kg, iv; format: ADME, organism-based; set-up: dose 8 mg/kg, route iv; conditions: in vivo
[37] = MRT in rat at 8 mg/kg, iv; format: ADME, organism-based; conditions: in vivo
4T1 [38] = assay: In vivo protac activity at CRBN/PARP1 in mouse 4T1 cells xenografted in mouse assessed as PARP1 degradation at 25 mg/kg, ip administered once a day; format: functional, organism-based
4T1 [39] = assay: Antitumor activity against mouse 4T1 cells allografted in immunocompetent mouse assessed as reduction in tumor volume at 25 mg/kg, ip administered once a day in presence of daunorubicin at 0.5 mg/kg, ip administered once a day; format: functional, organism-based
[40] = Toxicity in immunocompetent mouse allografted with mouse 4T1 cells assessed as effect on body weight at 25 mg/kg, ip administered once a day in presence of daunorubicin at 0.5 mg/kg, ip administered once a day; format: organism-based; conditions: in vivo
4T1 [41] = assay: Antitumor activity against mouse 4T1 cells allografted in immunocompetent mouse assessed as increase in CD8-positive T cells at 25 mg/kg, ip administered once a day in presence of daunorubicin at 0.5 mg/kg, ip administered once a day; format: functional, organism-based
MDA-MB-231 [42] = assay: Growth inhibition of human MDA-MB-231 cells at 0.25 uM; format: functional; conditions: read-out: GI
MDA-MB-231 [43] = assay: Growth inhibition of human MDA-MB-231 cells at 1 uM; format: functional; conditions: read-out: GI
MDA-MB-231 [44] = assay: Growth inhibition of human MDA-MB-231 cells at 4 uM; format: functional; conditions: read-out: GI
4T1 [45] = assay: Growth inhibition of mouse 4T1 cells at 0.25 uM; format: functional; conditions: read-out: GI
4T1 [46] = assay: Growth inhibition of mouse 4T1 cells at 0.5 uM; format: functional; conditions: read-out: GI
4T1 [47] = assay: Growth inhibition of mouse 4T1 cells at 1 uM; format: functional; conditions: read-out: GI
[48] = Cytotoxicity against human MCF-10A cells assessed as growth inhibition at 0.25 uM; format: toxicity, cell-based; conditions: read-out: GI
[49] = Cytotoxicity against human MCF-10A cells assessed as growth inhibition at 0.5 uM; format: toxicity, cell-based; conditions: read-out: GI

- DC50 [1]: 252 nM
- Activity [2]: Active
- Activity [3]: Active
- Activity [4]: Active
- half-life [34]: 1.87 h
- Cmax [35]: 5770 ng/mL
- AUC(0-t) [36]: 6960 ng·h/mL
- MRT [37]: 2.55 h
SMILES: NC(=O)c1cccc2cn(-c3ccc(C4CCCN(c5cccc6c5C(=O)N(C5CCC(=O)NC5=O)C6=O)C4)cc3)nc12 (centres undefined)
- inhibition (MDA-MB-231 [5]): Active
- inhibition (MDA-MB-231 [6]): Active
- inhibition of growth at 10 µM (MDA-MB-231 [7]): 4.55%
- inhibition of growth at 10 µM (MDA-MB-231 [8]): 22.5%
- inhibition of growth at 10 µM (MDA-MB-231 [9]): 38.1%
- inhibition of growth at 10 µM (MDA-MB-231 [10]): 59.8%
- CI (MDA-MB-231 [11]): 0.21
- CI (MDA-MB-231 [12]): 0.06
- CI (MDA-MB-231 [13]): 0.12
- inhibition of growth at 10 µM (4T1 [14]): 2.71%
- inhibition of growth at 10 µM (4T1 [15]): 65.5%
- inhibition of growth at 10 µM (4T1 [16]): 70.1%
- inhibition of growth at 10 µM (4T1 [17]): 98.2%
- CI (4T1 [18]): 0.44
- CI (4T1 [19]): 0.45
- CI (4T1 [20]): 0.0001
- inhibition at 10 µM [21]: 4.93%
- inhibition at 10 µM [22]: 35%
- inhibition at 10 µM [23]: 41.2%
- Activity (MDA-MB-231 [24]): Active
- Activity (MDA-MB-231 [25]): Active
- Activity (MDA-MB-231 [26]): Active
- Activity (MDA-MB-231 [27]): Active
- Activity (MDA-MB-231 [28]): Active
- Activity (MDA-MB-231 [29]): Active
- Activity (MDA-MB-231 [30]): Active
- Activity (MDA-MB-231 [31]): Active
- Activity (MDA-MB-231 [32]): Active
- Activity (MDA-MB-231 [33]): Active
- Activity (4T1 [38]): Active
- Activity (4T1 [39]): Active
- Activity [40]: Non-Toxic
- Activity (4T1 [41]): Active

SMILES: COc1cccc2c1C(=O)c1c(O)c3c(c(O)c1C2=O)C[C@@](O)(C(C)=O)C[C@@H]3O[C@H]1C[C@H](N)[C@H](O)[C@H](C)O1 [DAUNORUBICIN]
- inhibition of growth at 0.25 µM (MDA-MB-231 [42]): 9.76%
- inhibition of growth at 1 µM (MDA-MB-231 [43]): 10.7%
- inhibition of growth at 4 µM (MDA-MB-231 [44]): 36.9%
- inhibition of growth at 0.25 µM (4T1 [45]): 60%
- inhibition of growth at 0.5 µM (4T1 [46]): 63.6%
- inhibition of growth at 1 µM (4T1 [47]): 69.8%
- inhibition at 0.25 µM [48]: 35%
- inhibition at 0.5 µM [49]: 46.1%
